Experiment: cysteine challenge experiment (stability of Re and Tc carborane complexes)
Format: physicochemical
Conditions: thousand fold excess of cysteine, 1:1 (v/v) phosphate buffer (pH=7.4)-ethanol, 37° C., over 24 hours
Experimental: The stability of the Re and Tc carborane complexes were evaluated using a cysteine challenge experiment.^21 Compound 1, for example, was incubated with a thousand fold excess of cysteine in a 1:1 (v/v) phosphate buffer (pH=7.4)-ethanol mixture at 37° C. over 24 hours.

stability (decomposition) in cysteine challenge by HPLC, FTIR and electrospray mass spectrometry: no signs of decomposition
Substance: [NEt4][Re(CO)3(η^5-7,8-C2B9H11)] [Compound 1]
